The values below come from ChEMBL document CHEMBL1141975, “The development of potent and selective bisarylmaleimide GSK3 inhibitors” (Bioorg Med Chem Lett, 2005).

For test [1], the target named is Glycogen synthase kinase-3 beta (Homo sapiens, UniProt P49841). Description: Inhibitory concentration to inhibit Ser396 phosphorylation of tau, a natural substrate of GSK-3 in SY5Y cells. The format is functional, cell-based.
For test [2], the species on record is Homo sapiens. The experiment in a line: IC50 ratio between CDK4 and GSK-3.
The species named for test [3] is Homo sapiens. Description: IC50 ratio between PKCbeta II and GSK-3.
In test [4] the target is Glycogen synthase kinase-3 (Homo sapiens, UniProt P49840+P49841). The experiment in a line: Inhibitory concentration against the Glycogen synthase kinase-3. Format: protein assay.

Chain of Glycogen synthase kinase-3 beta (P49841 whole entry): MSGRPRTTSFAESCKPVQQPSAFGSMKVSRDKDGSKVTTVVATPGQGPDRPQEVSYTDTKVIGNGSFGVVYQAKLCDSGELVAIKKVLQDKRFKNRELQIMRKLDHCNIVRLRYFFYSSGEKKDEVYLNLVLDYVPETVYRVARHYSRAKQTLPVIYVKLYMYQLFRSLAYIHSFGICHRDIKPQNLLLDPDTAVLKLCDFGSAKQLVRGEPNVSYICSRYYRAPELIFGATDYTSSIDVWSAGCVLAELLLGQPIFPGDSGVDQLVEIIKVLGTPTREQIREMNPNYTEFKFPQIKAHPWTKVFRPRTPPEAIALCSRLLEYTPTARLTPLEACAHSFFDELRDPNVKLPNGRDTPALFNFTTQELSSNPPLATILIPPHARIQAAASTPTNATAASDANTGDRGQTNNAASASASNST

For the compound `O=C1NC(=O)C(c2cnc3cnccn23)=C1c1cn2c3c(cccc13)CN(C(=O)N1CCCCC1)CC2`, the IC50 came to 8.7 nM in test [1] and 2.1 nM in test [4]. The Selectivity in the test filed under Homo sapiens [2] was 8920; in the test filed under Homo sapiens [3] it was greater than 9500.
The corresponding values for `O=C1NC(=O)C(c2cnc3ccccn23)=C1c1cn2c3c(cccc13)CN(C(=O)C1CCOCC1)CC2` are 7.7 nM, 0.8 nM, 2650 and 1740.
As for `CC(=O)N1CCn2cc(C3=C(c4cccc5c4OCC5)C(=O)NC3=O)c3cccc(c32)C1`, the values for the Selectivity in the test listed under Homo sapiens [2] and in the test filed under Homo sapiens [3] were 77 and 133, respectively. For the same compound, in test [4], the IC50 is recorded as 1.1 nM.
The corresponding values for `O=C1NC(=O)C(c2cnc3cccnn23)=C1c1cn2c3c(cccc13)CNCC2` are 15, 133 and 4.8 nM.
For `O=C1NC(=O)C(c2cnc3ncccn23)=C1c1cn2c3c(cccc13)CN(C(=O)N1CCOCC1)CC2`, the IC50 in test [1] was determined as 297 nM; in test [4], 1.7 nM. Also, the Selectivity in the test listed under Homo sapiens [2] was 8580; in the test filed under Homo sapiens [3] it was greater than 11800.
As to `O=C1NC(=O)C(c2cccc3ccoc23)=C1c1cn2c3c(cccc13)CNCC2`, the Selectivity in the test filed under Homo sapiens [2] is 5; in the test filed under Homo sapiens [3] it was 183. Further, in test [4], the concentration for half-maximal inhibition (IC50) stood at 3.4 nM.
Regarding `O=C1NC(=O)C(c2cncc3ccoc23)=C1c1cn2c3c(cccc13)CN(C(=O)N1CCCCC1)CC2`, the Selectivity stood at 92 in the test filed under Homo sapiens [2] and 108 in the test listed under Homo sapiens [3]. For the same compound, the IC50 in test [4] was determined as 2.1 nM.
For `CCC(=O)N1CCn2cc(C3=C(c4cncc5ccoc45)C(=O)NC3=O)c3cccc(c32)C1`, in that order: 98, 375 and 1 nM.
As for `CC(=O)N1CCn2cc(C3=C(c4cccc5ccoc45)C(=O)NC3=O)c3cccc(c32)C1`, the Selectivity in the test listed under Homo sapiens [2] worked out at 25; in the test listed under Homo sapiens [3], 80. The same compound showed an IC50 in test [4] of 1.5 nM.
The corresponding values for `O=C1NC(=O)C(c2cnc3ccccn23)=C1c1cn2c3c(cccc13)CN(C(=O)N1CCCCC1)CC2` are 2420, 281 and 2 nM.
For `Cn1ccc2c(C3=C(c4cn5c6c(cccc46)CNCC5)C(=O)NC3=O)cccc21`, in that order: 1, 28 and 33 nM.
With `CN(C)C(=O)N1CCn2cc(C3=C(c4cnc5ccccn45)C(=O)NC3=O)c3cccc(c32)C1`, the Selectivity in the test filed under Homo sapiens [2] amounted to 907; in the test filed under Homo sapiens [3], 635. Besides, the IC50 in test [4] stood at 1.6 nM.
With `O=C1NC(=O)C(c2cnc3ccncn23)=C1c1cn2c3c(cccc13)CN(C(=O)N1CCOCC1)CC2`, the Selectivity in the test listed under Homo sapiens [2] and in the test filed under Homo sapiens [3] was greater than 282 throughout. Besides, in test [4], the IC50 is listed as 71 nM.
For `CC(=O)N1CCn2cc(C3=C(c4cncc5ccoc45)C(=O)NC3=O)c3cccc(c32)C1`, the Selectivity in the test listed under Homo sapiens [2] was 60; in the test filed under Homo sapiens [3], 422. Further, the IC50 in test [4] amounted to 0.9 nM.
The corresponding values for `O=C1NC(=O)C(c2ccn3ncccc23)=C1c1cn2c3c(cccc13)CNCC2` are 10, 18 and 30 nM.
`CN(C)C(=O)N1CCn2cc(C3=C(c4cncc5ccoc45)C(=O)NC3=O)c3cccc(c32)C1`: in the test filed under Homo sapiens [2], the Selectivity stood at 112. This compound came in with an IC50 in test [4] of 1.2 nM.
As to `O=C1NC(=O)C(c2cncc3ccoc23)=C1c1cn2c3c(cccc13)CN(C(=O)N1CCOCC1)CC2` [BISARYLMALEIMIDE 2], in the test filed under Homo sapiens [2], the Selectivity is 158. This compound also yielded an IC50 in test [4] of 0.8 nM.
On to `O=C1NC(=O)C(c2cn3c4c(cccc24)CNCC3)=C1c1cccc2c1OCC2`, for which the Selectivity in the test filed under Homo sapiens [2] amounted to 7; in the test listed under Homo sapiens [3] it was 53. In test [4], this compound showed an IC50 of 3.3 nM.
Take `O=C1NC(=O)C(c2cn3c4c(cccc24)CNCC3)=C1c1cccc2sccc12`: the IC50 in test [4] stood at 34 nM.
Take `CN(C)C(=O)N1CCn2cc(C3=C(c4cccc5ccoc45)C(=O)NC3=O)c3cccc(c32)C1`: the Selectivity came to 35 in the test filed under Homo sapiens [2] and 89 in the test filed under Homo sapiens [3]. The same compound came in with an IC50 in test [4] of 2.7 nM.
For `O=C1NC(=O)C(c2cn3c4c(cccc24)CNCC3)=C1c1cccc2occc12`, in that order: 1, 39 and 41 nM.
For `O=C1NC(=O)C(c2cnc3cnccn23)=C1c1cn2c3c(cccc13)CNCC2`, in that order: 19, greater than 334 and 60 nM.
Turning to `CN(C)C(=O)N1CCn2cc(C3=C(c4cccc5c4OCO5)C(=O)NC3=O)c3cccc(c32)C1`, the figures for the Selectivity in the test listed under Homo sapiens [2] and in the test listed under Homo sapiens [3] were 89 and 190, respectively. The IC50 in test [4] is 3.2 nM.
The corresponding values for `O=C1NC(=O)C(c2cn3c4c(cccc24)CNCC3)=C1c1ccc2c(c1)OCO2` are 18, 202 and 27 nM.
Compound `O=C1NC(=O)C(c2cn3c4c(cccc24)CNCC3)=C1c1ccc2c(c1)COC2` registered an IC50 in test [4] of 83 nM.
Consider `O=C1NC(=O)C(c2cncc3ccoc23)=C1c1cn2c3c(cccc13)CNCC2`, for which the Selectivity in the test listed under Homo sapiens [2] worked out at 6; in the test filed under Homo sapiens [3], 54. In test [4], this compound displayed an IC50 of 3.2 nM.
For `CC(=O)N1CCn2cc(C3=C(c4cnc5ccccn45)C(=O)NC3=O)c3cccc(c32)C1`, the concentration for half-maximal inhibition (IC50) in test [1] was 111 nM; in test [4] it was 1.9 nM. For the same compound, the Selectivity in the test filed under Homo sapiens [2] is 483; in the test listed under Homo sapiens [3] it was 457.
Take `O=C1NC(=O)C(c2cn3c4c(cccc24)CNCC3)=C1c1coc2ccccc12`: the IC50 in test [4] is listed as 64 nM.
As for `O=C1NC(=O)C(c2cnc3ncccn23)=C1c1cn2c3c(cccc13)CNCC2`, the figures for the Selectivity in the test filed under Homo sapiens [2] and in the test filed under Homo sapiens [3] were 20 and 112, respectively. Moreover, the IC50 in test [4] is 120 nM.
With `O=C1NC(=O)C(c2cccc3ccsc23)=C1c1cn2c3c(cccc13)CNCC2`, the Selectivity was determined as 1 in the test filed under Homo sapiens [2] and 15 in the test listed under Homo sapiens [3]. In test [4], this compound showed an IC50 of 45 nM.
Regarding `O=C1NC(=O)C(c2cn3c4c(cccc24)CNCC3)=C1c1cccc2c1CCO2`, the IC50 in test [4] was 130 nM.
Regarding `O=C1NC(=O)C(c2cnc3cccnn23)=C1c1cn2c3c(cccc13)CN(C(=O)N1CCCCC1)CC2` [BISARYLMALEIMIDE 1], the IC50 amounted to 0.3 nM in test [1] and 1.6 nM in test [4]. Further, the Selectivity was 1330 in the test listed under Homo sapiens [2] and 1300 in the test filed under Homo sapiens [3].
For `CC(=O)N1CCn2cc(C3=C(c4cccc5ccsc45)C(=O)NC3=O)c3cccc(c32)C1`, the Selectivity in the test filed under Homo sapiens [2] and in the test filed under Homo sapiens [3] was 7 each time. This compound also came in with an IC50 in test [4] of 19 nM.
For the compound `CC(C)C(=O)N1CCn2cc(C3=C(c4cnc5ccccn45)C(=O)NC3=O)c3cccc(c32)C1`, the IC50 in test [1] was found to be 5 nM; in test [4], 1.8 nM. Besides, the Selectivity in the test filed under Homo sapiens [2] worked out at 2020; in the test listed under Homo sapiens [3], 522.
In test [4], `O=C1NC(=O)C(c2cccc3cc[nH]c23)=C1c1cn2c3c(cccc13)CNCC2` had an IC50 of 150 nM.
In the case of `CC(=O)N1CCn2cc(C3=C(c4cccc5c4OCO5)C(=O)NC3=O)c3cccc(c32)C1`, the Selectivity in the test listed under Homo sapiens [2] came to 50; in the test filed under Homo sapiens [3] it was 240. In test [4], this compound came in with an IC50 of 2.5 nM.
In the case of `O=C1NC(=O)C(c2cnc3cnccn23)=C1c1cn2c3c(cccc13)CN(C(=O)N1CCOCC1)CC2`, the values for the IC50 in test [1] and in test [4] were 11 nM and 3.2 nM, respectively. Moreover, the Selectivity in the test listed under Homo sapiens [2] was 4550; in the test listed under Homo sapiens [3], greater than 6300.
On to `O=C1NC(=O)C(c2cnc3ccccn23)=C1c1cn2c3c(cccc13)CN(C(=O)N1CCOCC1)CC2`, for which the IC50 in test [4] was found to be 1.3 nM.
Take `O=C1NC(=O)C(c2cnc3ccccn23)=C1c1cn2c3c(cccc13)CNCC2`: the Selectivity in the test filed under Homo sapiens [2] was 13; in the test listed under Homo sapiens [3] it was 28. Also, the IC50 in test [4] amounted to 12 nM.
The corresponding values for `O=C1NC(=O)C(c2cn3c4c(cccc24)CNCC3)=C1c1cccc2c1OCO2` are 2, 103 and 13 nM.
For `CN(C)C(=O)N1CCn2cc(C3=C(c4ccn5ncccc45)C(=O)NC3=O)c3cccc(c32)C1`, the IC50 stood at 38 nM in test [1] and 4.7 nM in test [4]. The Selectivity in the test filed under Homo sapiens [2] came to 370; in the test filed under Homo sapiens [3], 235.
Turning to `O=C1NC(=O)C(c2cn3c4c(cccc24)CNCC3)=C1c1cccc2c1ccn2CCCO`, the Selectivity in the test filed under Homo sapiens [2] came to 1; in the test filed under Homo sapiens [3], 9. Also, the IC50 in test [4] was 27 nM.
The corresponding values for `O=C1NC(=O)C(c2cnc3ccncn23)=C1c1cn2c3c(cccc13)CNCC2` are 14, 3 and 330 nM.
Regarding `O=C1NC(=O)C(c2cnc3ncccn23)=C1c1cn2c3c(cccc13)CN(C(=O)N1CCCCC1)CC2`, the results for the IC50 in test [1] and in test [4] were 53 nM and 1.9 nM, respectively. Moreover, the Selectivity in the test listed under Homo sapiens [2] is 10000; in the test listed under Homo sapiens [3], greater than 1060.
For the compound `O=C1NC(=O)C(c2ccn3ncccc23)=C1c1cn2c3c(cccc13)CN(C(=O)N1CCOCC1)CC2`, in the test filed under Homo sapiens [2], the Selectivity turned out to be 1900. Also, the IC50 in test [4] is listed as 1.3 nM.

The IC50 is the concentration that inhibits the measured activity by half. Low readings indicate higher potency, high ones lower potency.
